The target in test [1] is RON (Homo sapiens, UniProt Q04912). Description: Inhibitory activity against RON, TR-FRET kinase assay. In kind it is biochemical. As to conditions: RON enzyme. Here is the method: In order to measure the inhibitory activity of each of the compounds of Examples against RON, the IC50 of each of the compounds was measured using a Time-Resolved Fluorescence Energy Transfer Chemistry (TR-FRET).
Specifically, the compound was prepared to a concentration of 1 mM with 100% DMSO and was diluted 10 times in a stepwise manner through 3-fold dilution. 2 ul of the compound diluted in a stepwise manner was added to a 96-well-plate containing 48 ul of a 1× kinase reaction buffer (50 mM HEPES (pH 7.4), 0.01% Tween-20, 5 mM DTT, 0.5 mM Na3VO4, 2 mM EGTA, 10 mM MgCl2).
The RON protein was diluted to a concentration of 49.3 nM with an RON storage buffer (50 mM Tris-HCl (pH 7.5), 150 mM NaCl, 0.5 mM EDTA, 0.02% Triton X-100), and then diluted again to a concentration of 0.4 nM with a 1× kinase reaction buffer. As a substrate cocktail, a RON-specific substrate mixture (40 uM ULight-labeled Poly GT, 100 nM ATP) at a concentration 2 times the final reaction concentration.
Thereafter, a 384-well-plate was prepared, and 2.5 ul of each of the diluted compounds of Examples was added to a corresponding well of experimental group wells, and 2.5 ul of a 4% DMSO solution was dispensed into high control wells and low control wells.
(§1) Thereafter, 2.5 μL of 0.4 nM RON was dispensed into the high control wells and the experimental group wells, and 2.5 μL of a 1× kinase reaction buffer was added to the low control wells, and the RON and the reaction buffer were centrifuged at room temperature for 40 seconds at 1000 RPM, and then incubated at room temperature for 20 to 30 minutes. Then, 5 μL of a substrate cocktail (2×) was dispensed into all wells, centrifuged at room temperature for 40 seconds at 1000 RPM, and then incubated at room temperature for 60 minutes. Thereafter, 5 μL of 30 mM EDTA was added to all wells to terminate the reaction, and then incubated again at room temperature for 5 minutes. Thereafter, 5 μL of a 4× phosphotyrosine antibody (Perkin Elmer) containing europium was added to all wells, and then incubated at room temperature for 60 minutes. After the incubation, the 384-well-plate was read with a Vison plate reader. At this time, the excitation wavelength was 340 nm, and the emission wavelength was 620 nm and 665 nm. The IC50 value of the compound of each Example was derived using the GraphPd Prism7 program.

Test [2] has as its target cMET (Homo sapiens, UniProt P08581). Description: Inhibitory activity against MET (cMET), TR-FRET kinase assay. To be noted: cMET enzyme. Format: biochemical. Here is the method:
In addition, in order to measure the enzyme activity inhibition for cMET, the evaluation was performed in the same manner as the enzyme activity inhibition measurement experiment for the RON.
Specifically, the compound was prepared to a concentration of 1 mM with 100% DMSO and was diluted 10 times in a stepwise manner through 3-fold dilution. 2 ul of the compound diluted in a stepwise manner was added to a 96-well-plate containing 48 ul of a 1× kinase reaction buffer (50 mM HEPES (pH 7.4), 0.05% BSA, 0.005% Tween-20, 1 mM DTT, 0.5 mM MnCl2, 20 mM MgCl2).
The cMET protein was diluted to a concentration of 263 nM with a cMET storage buffer (50 mM Tris-HCl (pH 7.5), 150 mM NaCl, 0.05% Brij35, 1 mM DTT, 10% Glycerol), and then diluted again to a concentration of 2 nM with a 1× kinase reaction buffer. As a substrate cocktail, a MET-specific substrate mixture (5 uM TK peptide, […]) at a concentration 2 times the final reaction concentration.
Thereafter, a 384-well-plate was prepared, and 2.5 μl of each of the diluted compounds of Examples was added to a corresponding well of experimental group wells, and 2.5 μl of a 4% DMSO solution was dispensed into high control wells and low control wells.
as §1, with “of 2” for “of 0.4”, “nM cMET” for “nM RON”, “of 90” for “of 30”

Chain of RON (Q04912 25-1400, species assumed): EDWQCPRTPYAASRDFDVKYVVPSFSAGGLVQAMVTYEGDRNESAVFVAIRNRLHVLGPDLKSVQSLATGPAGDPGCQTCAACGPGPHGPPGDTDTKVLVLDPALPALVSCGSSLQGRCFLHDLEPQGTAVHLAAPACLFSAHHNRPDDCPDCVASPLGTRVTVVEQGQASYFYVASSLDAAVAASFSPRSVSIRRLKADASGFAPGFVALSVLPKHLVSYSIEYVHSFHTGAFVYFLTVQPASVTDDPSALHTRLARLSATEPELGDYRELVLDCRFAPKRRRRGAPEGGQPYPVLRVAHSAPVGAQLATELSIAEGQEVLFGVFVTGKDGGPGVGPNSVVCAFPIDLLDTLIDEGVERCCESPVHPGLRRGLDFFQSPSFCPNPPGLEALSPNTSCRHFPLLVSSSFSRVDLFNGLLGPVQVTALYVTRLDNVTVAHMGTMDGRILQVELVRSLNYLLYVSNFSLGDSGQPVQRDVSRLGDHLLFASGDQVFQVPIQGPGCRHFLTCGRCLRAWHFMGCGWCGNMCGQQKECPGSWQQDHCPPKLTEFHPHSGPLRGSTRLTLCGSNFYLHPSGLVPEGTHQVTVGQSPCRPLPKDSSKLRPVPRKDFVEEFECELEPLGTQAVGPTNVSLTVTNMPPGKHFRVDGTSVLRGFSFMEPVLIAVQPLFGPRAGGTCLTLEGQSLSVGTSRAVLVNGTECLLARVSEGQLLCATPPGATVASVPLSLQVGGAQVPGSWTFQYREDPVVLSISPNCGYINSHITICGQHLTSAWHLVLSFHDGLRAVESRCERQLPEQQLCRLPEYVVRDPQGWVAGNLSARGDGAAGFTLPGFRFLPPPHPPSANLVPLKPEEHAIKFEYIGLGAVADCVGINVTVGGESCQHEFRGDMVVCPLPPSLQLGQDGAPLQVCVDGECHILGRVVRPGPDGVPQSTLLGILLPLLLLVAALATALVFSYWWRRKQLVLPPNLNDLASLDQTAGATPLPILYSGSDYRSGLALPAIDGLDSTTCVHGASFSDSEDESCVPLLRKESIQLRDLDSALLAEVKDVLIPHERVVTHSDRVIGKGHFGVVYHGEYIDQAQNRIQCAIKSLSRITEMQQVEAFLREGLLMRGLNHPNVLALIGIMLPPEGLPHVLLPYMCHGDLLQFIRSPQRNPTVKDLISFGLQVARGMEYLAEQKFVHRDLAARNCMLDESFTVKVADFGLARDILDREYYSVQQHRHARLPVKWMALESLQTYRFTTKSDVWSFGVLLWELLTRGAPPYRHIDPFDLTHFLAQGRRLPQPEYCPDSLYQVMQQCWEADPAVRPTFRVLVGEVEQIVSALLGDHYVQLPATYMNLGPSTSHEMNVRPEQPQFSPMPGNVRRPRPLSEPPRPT
Chain of cMET (P08581 25-1390): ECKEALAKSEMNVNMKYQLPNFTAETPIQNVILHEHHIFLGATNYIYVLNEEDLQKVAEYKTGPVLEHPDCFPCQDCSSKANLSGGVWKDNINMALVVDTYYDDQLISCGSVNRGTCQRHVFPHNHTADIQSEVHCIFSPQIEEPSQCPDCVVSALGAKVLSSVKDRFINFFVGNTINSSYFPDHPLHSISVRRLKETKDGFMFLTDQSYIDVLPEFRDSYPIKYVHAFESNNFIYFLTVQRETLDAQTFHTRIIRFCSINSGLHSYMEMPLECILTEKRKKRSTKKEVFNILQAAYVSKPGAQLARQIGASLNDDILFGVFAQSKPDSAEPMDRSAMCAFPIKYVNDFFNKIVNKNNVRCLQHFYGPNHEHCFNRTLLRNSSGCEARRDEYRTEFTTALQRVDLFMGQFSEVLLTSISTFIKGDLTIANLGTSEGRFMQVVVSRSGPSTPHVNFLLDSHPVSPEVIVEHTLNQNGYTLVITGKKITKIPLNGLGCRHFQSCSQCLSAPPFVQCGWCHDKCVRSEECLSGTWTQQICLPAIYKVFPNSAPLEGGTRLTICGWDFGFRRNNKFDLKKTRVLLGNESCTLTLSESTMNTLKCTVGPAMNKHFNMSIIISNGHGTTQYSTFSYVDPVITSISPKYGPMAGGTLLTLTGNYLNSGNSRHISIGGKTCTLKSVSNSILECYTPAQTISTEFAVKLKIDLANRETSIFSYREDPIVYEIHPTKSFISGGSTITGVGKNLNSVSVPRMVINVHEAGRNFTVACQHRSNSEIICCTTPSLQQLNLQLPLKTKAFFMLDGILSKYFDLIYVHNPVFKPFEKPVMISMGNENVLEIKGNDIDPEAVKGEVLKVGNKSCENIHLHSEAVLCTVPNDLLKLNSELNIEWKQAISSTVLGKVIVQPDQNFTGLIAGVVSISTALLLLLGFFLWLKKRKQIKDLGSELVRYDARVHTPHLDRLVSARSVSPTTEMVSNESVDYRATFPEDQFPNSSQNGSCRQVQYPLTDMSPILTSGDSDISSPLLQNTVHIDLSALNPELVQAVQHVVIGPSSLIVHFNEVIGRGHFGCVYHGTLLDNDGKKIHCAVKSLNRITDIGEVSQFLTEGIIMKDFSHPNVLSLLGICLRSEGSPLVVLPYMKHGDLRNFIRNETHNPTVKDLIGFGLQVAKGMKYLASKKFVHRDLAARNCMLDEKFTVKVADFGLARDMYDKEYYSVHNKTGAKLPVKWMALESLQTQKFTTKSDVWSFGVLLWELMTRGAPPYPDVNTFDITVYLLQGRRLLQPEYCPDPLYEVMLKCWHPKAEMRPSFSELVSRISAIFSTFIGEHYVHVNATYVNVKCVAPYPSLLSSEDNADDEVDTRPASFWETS

Take `COc1ccccc1-n1ncc(C(=O)Nc2ccc(Oc3ccnc4[nH]c(=O)n(C(C)C)c34)c(F)c2)c1C(F)(F)F` [Example 18, N-(3-fluoro-4-((1-isopropyl-2-oxo-2,3-dihydro-1H-imidazo[4,5-b]pyridine-7-yl)oxy)phenyl)-1-(2-methoxyphenyl)-5-(trifluoromethyl)-1H-pyrazole-4-carboxamide]: the IC50 in test [1] was in the range of 50 to 500 nM; in test [2], 500 to 5000 nM.
Taken in the same sequence, the figures for `CC(C)n1c(=O)[nH]c2nccc(Oc3ccc(NC(=O)c4cnn(-c5ccccc5)c4-c4ccccc4)cc3F)c21` [Example 19, N-(3-fluoro-4-((1-isopropyl-2-oxo-2,3-dihydro-1H-imidazo[4,5-b]pyridine-7-yl)oxy)phenyl)-1,5-diphenyl-1H-pyrazole-4-carboxamide] were 50 to 500 nM and 50 to 500 nM.
The like results for `CC(C)n1c(=O)[nH]c2nccc(Oc3ccc(NC(=O)c4cnn(C5CCCOC5)c4C(F)(F)F)cc3F)c21` (centres unmarked) [Example 20, N-(3-fluoro-4-((1-isopropyl-2-oxo-2,3-dihydro-1H-imidazo[4,5-b]pyridine-7-yl)oxy)phenyl)-1-(tetrahydro-2H-pyran-3-yl)-5-(trifluoromethyl)-1H-pyrazole-4-carboxamide] were, in that order, less than 50 nM and 500 to 5000 nM.
In the case of `O=C(Nc1ccc(Oc2ccnc3[nH]c(=O)n(C4CCCC4)c23)c(F)c1)c1ncn(-c2ccccc2)c1C(F)(F)F` [Example 21, N-(4-((1-cyclopentyl-2-oxo-2,3-dihydro-1H-imidazo[4,5-b]pyridine-7-yl)oxy)-3-fluorophenyl)-1-phenyl-5-(trifluoromethyl)-1H-imidazole-4-carboxamide], the IC50 was less than 50 nM in test [1] and 500 to 5000 nM in test [2].
Turning to `O=C(Nc1ccc(Oc2ccnc3[nH]c(=O)n(C4CCCC4)c23)c(F)c1)c1cnn(-c2ccccc2)c1C(F)(F)F` [Example 22, N-(4-((1-cyclopentyl-2-oxo-2,3-dihydro-1H-imidazo[4,5-b]pyridine-7-yl)oxy)-3-fluorophenyl)-1-phenyl-5-(trifluoromethyl)-1H-pyrazole-4-carboxamide], the figures for the 50% inhibitory concentration (IC50) in test [1] and in test [2] were less than 50 nM and 500 to 5000 nM, respectively.
Take `CCc1c(C(=O)Nc2ccc(Oc3ccnc4[nH]c(=O)n(C5CCCC5)c34)c(F)c2)cnn1-c1ccccc1` [Example 23, N-(4-((1-cyclopentyl-2-oxo-2,3-dihydro-1H-imidazo[4,5-b]pyridine-7-yl)oxy)-3-fluorophenyl)-5-ethyl-1-phenyl-1H-pyrazole-4-carboxamide]: the figures for the IC50 in test [1] and in test [2] were 50 to 500 nM and 500 to 5000 nM, respectively.
The like results for `CC(C)n1c(=O)[nH]c2nccc(Oc3ccc(NC(=O)c4ccccc4C(F)(F)F)cc3F)c21` [Example 24, N-(3-fluoro-4-((1-isopropyl-2-oxo-2,3-dihydro-1H-imidazo[4,5-b]pyridine-7-yl)oxy)phenyl)-2-(trifluoromethyl)benzamide] were, in that order, 500 to 5000 nM and 500 to 5000 nM.
The like results for `CC(C)n1c(=O)[nH]c2nccc(Oc3ccc(NC(=O)c4ccc(Br)cc4C(F)(F)F)cc3F)c21` [Example 25, 4-bromo-N-(3-fluoro-4-((1-isopropyl-2-oxo-2,3-dihydro-1H-imidazo[4,5-b]pyridine-7-yl)oxy)phenyl)-2-(trifluoromethyl)benzamide] were, in that order, 50 to 500 nM and greater than 5000 nM.
For the compound `CC(C)n1c(=O)[nH]c2nccc(Oc3ccc(NC(=O)c4cnn(-c5cccc6ccccc56)c4C(F)(F)F)cc3F)c21` [Example 26, N-(3-fluoro-4-((1-isopropyl-2-oxo-2,3-dihydro-1H-imidazo[4,5-b]pyridine-7-yl)oxy)phenyl)-1-(naphthalene-1-yl)-5-(trifluoromethyl)-1H-pyrazole-4-carboxamide], the IC50 in test [1] was in the range of 50 to 500 nM; in test [2], 500 to 5000 nM.
For `CC(C)n1c(=O)[nH]c2nccc(Oc3ccc(NC(=O)c4cccc(Br)c4C(F)(F)F)cc3F)c21` [Example 27, 3-bromo-N-(3-fluoro-4-((1-isopropyl-2-oxo-2,3-dihydro-1H-imidazo[4,5-b]pyridine-7-yl)oxy)phenyl)-2-(trifluoromethyl)benzamide], the IC50 was 500 to 5000 nM in test [1] and greater than 5000 nM in test [2].
The like results for `CC(C)n1c(=O)[nH]c2nccc(Oc3ccc(NC(=O)c4cnn(C5CCCCC5)c4C(F)(F)F)cc3F)c21` [Example 28, 1-cyclohexyl-N-(3-fluoro-4-((1-isopropyl-2-oxo-2,3-dihydro-1H-imidazo[4,5-b]pyridine-7-yl)oxy)phenyl)-5-(trifluoromethyl)-1H-pyrazole-4-carboxamide] were, in that order, less than 50 nM and 500 to 5000 nM.
Taken in the same sequence, the figures for `CC(C)n1c(=O)[nH]c2nccc(Oc3ccc(NC(=O)c4cnn(C5CCOCC5)c4C(F)(F)F)cc3F)c21` [Example 29, N-(3-fluoro-4-((1-isopropyl-2-oxo-2,3-dihydro-1H-imidazo[4,5-b]pyridine-7-yl)oxy)phenyl)-1-(tetrahydro-2H-pyran-4-yl)-5-(trifluoromethyl)-1H-pyrazole-4-carboxamide] were 50 to 500 nM and 50 to 500 nM.
The like results for `CC(C)n1c(=O)[nH]c2nccc(Oc3ccc(NC(=O)c4cnn(C(C)(C)C)c4C(F)(F)F)cc3F)c21` [Example 30, 1-(tert-butyl)-N-(3-fluoro-4-((1-isopropyl-2-oxo-2,3-dihydro-1H-imidazo[4,5-b]pyridine-7-yl)oxy)phenyl)-5-(trifluoromethyl)-1H-pyrazole-4-carboxamide] were, in that order, 50 to 500 nM and 500 to 5000 nM.
Turning to `CC(C)n1c(=O)[nH]c2nccc(Oc3ccc(NC(=O)c4cnn(C5CCCCCC5)c4C(F)(F)F)cc3F)c21` [Example 31, 1-cycloheptyl-N-(3-fluoro-4-((1-isopropyl-2-oxo-2,3-dihydro-1H-imidazo[4,5-b]pyridine-7-yl)oxy)phenyl)-5-(trifluoromethyl)-1H-pyrazole-4-carboxamide], the IC50 in test [1] is less than 50 nM; in test [2], 500 to 5000 nM.
The like results for `CC(C)n1c(=O)[nH]c2nccc(Oc3ccc(NC(=O)Cc4cnn(-c5ccccc5)c4C(F)(F)F)cc3F)c21` [Example 32, N-(3-fluoro-4-((1-isopropyl-2-oxo-2,3-dihydro-1H-imidazo[4,5-b]pyridine-7-yl)oxy)phenyl)-2-(1-phenyl-5-(trifluoromethyl)-1H-pyrazol-4-yl)acetamide] were, in that order, 50 to 500 nM and 500 to 5000 nM.
The like results for `CC(C)n1c(=O)[nH]c2nccc(Oc3ccc(NC(=O)c4cnn(C5CCCN(C)C5)c4C(F)(F)F)cc3F)c21` (centres unmarked) [Example 33, N-(3-fluoro-4-((1-isopropyl-2-oxo-2,3-dihydro-1H-imidazo[4,5-b]pyridine-7-yl)oxy)phenyl)-1-(1-methylpiperidine-3-yl)-5-(trifluoromethyl)-1H-pyrazole-4-carboxamide] were, in that order, 50 to 500 nM and 500 to 5000 nM.

The values are drawn from patent US20240300944A1, “NOVEL UREA DERIVATIVE COMPOUND AS RON INHIBITOR” (LG CHEM, LTD., priority 2021, published 2024).
